Where “and” joins values, the source holds several entries; their conditions need not be identical. Equal values may be shown once.
What was measured:
hCB1 = hCB1 (Homo sapiens, UniProt P21554); experiment: Tango β-arrestin-2 recruitment, HTLA cells, CB1R; format: cell-based; parameters: expressed in transfected cells; host or cells: HTLA cells (gift of R. Axel), transient transfection
hCB2 = hCB2 (Homo sapiens, UniProt P34972); experiment: TRUPATH BRET2 GoA dissociation, HEK293T; format: cell-based; parameters: expressed in transfected cells; host or cells: HEK293T cells (ATCC: CRL-3216), transient co-transfection; conditions: Log[drug], replicate columns
Chain of hCB2 (P34972 whole entry): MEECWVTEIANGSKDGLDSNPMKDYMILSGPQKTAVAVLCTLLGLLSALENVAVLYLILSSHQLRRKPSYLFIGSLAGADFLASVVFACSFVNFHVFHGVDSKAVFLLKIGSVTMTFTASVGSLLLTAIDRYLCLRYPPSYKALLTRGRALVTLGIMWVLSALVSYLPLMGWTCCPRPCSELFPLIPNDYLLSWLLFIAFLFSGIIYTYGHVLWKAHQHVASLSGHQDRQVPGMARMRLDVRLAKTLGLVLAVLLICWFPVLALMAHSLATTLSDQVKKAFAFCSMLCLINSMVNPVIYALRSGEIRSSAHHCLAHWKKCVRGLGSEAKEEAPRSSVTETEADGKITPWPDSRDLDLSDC

Chain of hCB1 (P21554 whole entry): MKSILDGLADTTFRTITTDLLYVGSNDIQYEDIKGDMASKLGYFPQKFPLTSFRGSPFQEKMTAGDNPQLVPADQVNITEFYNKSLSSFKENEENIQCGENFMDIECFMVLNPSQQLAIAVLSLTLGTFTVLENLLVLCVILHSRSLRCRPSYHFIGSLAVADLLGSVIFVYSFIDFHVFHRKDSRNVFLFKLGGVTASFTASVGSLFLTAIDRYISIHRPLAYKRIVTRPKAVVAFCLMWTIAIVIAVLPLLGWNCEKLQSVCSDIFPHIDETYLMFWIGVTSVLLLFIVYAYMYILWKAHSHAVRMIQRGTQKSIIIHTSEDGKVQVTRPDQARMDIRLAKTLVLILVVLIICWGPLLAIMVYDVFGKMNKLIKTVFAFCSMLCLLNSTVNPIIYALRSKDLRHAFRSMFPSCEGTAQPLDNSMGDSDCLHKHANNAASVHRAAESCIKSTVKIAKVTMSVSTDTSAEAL

SMILES: COC(=O)[C@@H]1[C@@H]2CCC[C@@H]2CN1C(=O)c1cc(C)n(-c2cccc(Cl)c2)n1 (racemic) [‘10010]
- response, replicate values of concentration-response curve (FigS7f) (hCB1; Log[drug], M = -4.52): 24.852 and -9.474 and 31.57 and 49.261 and 34.9163 and 58.51 and 43.3772 and 13.5605 and 34.2635 and 143.166 and 149.946 and 121.258
- response, replicate values of concentration-response curve (FigS7f) (hCB1; Log[drug], M = -5): -6.393 and 4.812 and 50.5074 and 20.7309 and 18.1964 and 30.378 and 30.3734 and 43.3772 and 17.784 and 37.7997 and 110.741 and 29.9442
- response at Log[drug], M -5 (FigS4e) (hCB1; Log[drug], M = -5, individual replicates): 7.472 and 8.685 and 7.884 and 5.743 and 2.852 and 6.706 and 6.083 and 7.677 and 9.73 and 9.693 and 11.3624 and 13.6983
- response, replicate values of concentration-response curve (FigS7f) (hCB1; Log[drug], M = -5.52): -20.324 and 14.103 and 31.5067 and 7.169 and 19.8684 and 6.1872 and -9.345 and -6.435 and -28.1989 and 72.0832 and 46.8763 and 64.173
- response at Log[drug], M -5.52 (FigS4e) (hCB1; Log[drug], M = -5.52, individual replicates): 17.6293 and 13.3704 and 15.7552 and 17.3388 and 7.111 and 7.22 and 6.777 and 6.548 and 14.8053 and 14.1767 and 12.0847 and 15.6871
- response, replicate values of concentration-response curve (FigS7f) (hCB1; Log[drug], M = -6): -1.057 and 19.693 and 21.3155 and 18.7272 and -21.0026 and 10.5662 and 17.0767 and 0.7084 and 10.105 and 46.129 and 8.583 and -11.9397
- response at Log[drug], M -6 (FigS4e) (hCB1; Log[drug], M = -6, individual replicates): 17.4137 and 13.2205 and 12.7098 and 18.5288 and 2.8 and 2.042 and 0.7471 and 2.0116 and 5.809 and 8.098 and 10.8652 and 9.299
- response, replicate values of concentration-response curve (FigS7f) (hCB1; Log[drug], M = -6.52): 16.7142 and -12.7567 and -9.207 and 42.4801 and 2.591 and -9.299 and -1.706 and 6.518 and 3.588 and 25.7157 and 29.853 and 20.7035
- response at Log[drug], M -6.52 (FigS4e) (hCB1; Log[drug], M = -6.52, individual replicates): 5.804 and 6.685 and 5.518 and 6.338 and -2.975 and -1.665 and -2.183 and -3.091 and 1.981 and 0.8276 and 5.1991 and 1.175
- response, replicate values of concentration-response curve (FigS7f) (hCB1; Log[drug], M = -7): 11.1876 and 2.403 and 33.2939 and -14.3677 and -5.119 and -14.8322 and -4.192 and -26.8955 and -17.9232 and -30.0748 and 5.375 and 20.4665
- response at Log[drug], M -7 (FigS4e) (hCB1; Log[drug], M = -7, individual replicates): 8.629 and 6.746 and 5.86 and 10.4703 and -2.0219 and -2.877 and 1.224 and -2.078 and 2.76 and 0.06777 and 1.494 and 1.231
- response, replicate values of concentration-response curve (FigS7f) (hCB1; Log[drug], M = -7.52): -4.594 and -7.623 and -10.5004 and 2.14 and -6.485 and 4.329 and -8.365 and -9.244 and -13.1441 and 57.083 and -23.4769 and -26.8306
- response at Log[drug], M -7.52 (FigS4e) (hCB1; Log[drug], M = -7.52, individual replicates): 7.402 and 10.1376 and 9.341 and 5.865 and -1.189 and -1.594 and -1.932 and -1.59 and 2.357 and 3.37 and 0.3773 and 1.259
- response at Log[drug], M -8 (FigS4e) (hCB1; Log[drug], M = -8, individual replicates): 5.148 and 6.741 and 11.0794 and 7.462 and -3.208 and -1.519 and -1.219 and -1.073 and 3.632 and 3.698 and 2.085 and 1.362
- response at Log[drug], M -8.52 (FigS4e) (hCB1; Log[drug], M = -8.52, individual replicates): 6.619 and 9.146 and 5.084 and 9.668 and -0.1198 and -1.382 and -2.75 and -0.9228 and 3.28 and -0.4583 and 7.234 and 5.093
- response at Log[drug], M -9 (FigS4e) (hCB1; Log[drug], M = -9, individual replicates): 7.852 and 7.417 and 8.056 and 9.08 and -2.328 and -1.287 and -1.685 and -1.328 and 7.254 and 4.304 and 5.943 and 1.774
- response, replicate values of concentration-response curve (FigS7f) (hCB1; Log[drug], M = -9.52): 6.738 and -6.178 and -20.755 and -11.5014
- response at Log[drug], M -9.52 (FigS4e) (hCB1; Log[drug], M = -9.52, individual replicates): 9.847 and 11.0284 and 11.6628 and 8.737 and -1.263 and 0.9084 and -0.5418 and -0.1936 and 4.704 and 2.799 and 4.5399 and 1.57
- response, replicate values of concentration-response curve (FigS7f) (hCB1; Log[drug], M = -10): 28.4645 and -14.1129 and -6.736 and 44.2981 and 21.9252 and 39.0432 and 53.2891 and 13.6717 and 41.3867 and -34.1393 and -0.001553 and -21.0711
- response at Log[drug], M -10 (FigS4e) (hCB1; Log[drug], M = -10, individual replicates): 10.788 and 9.1102 and 5.959 and 9.12 and -1.758 and -1.431 and -1.611 and -0.8081 and 3.28 and 4.704 and 4.745 and 3.311
- response at Log[drug], M -10.52 (FigS4e) (hCB1; Log[drug], M = -10.52, individual replicates): 6.358 and 9.064 and 8.9107 and 9.172 and 1.265 and 0.1792 and -0.6688 and 1.04 and 3.157 and 2.819 and 2.153 and 4.1507
- response at Log[drug], M -11 (FigS4e) (hCB1; Log[drug], M = -11, individual replicates): 2.256 and 6.798 and 9.796 and 5.744 and -1.353 and -1.763 and 1.556 and -0.804 and 2.6758 and 2.932 and 3.905 and 1.57
- response at Log[drug], M -11.52 (FigS4e) (hCB1; Log[drug], M = -11.52, individual replicates): 2.281 and 3.903 and 3.253 and 1.1509 and 1.314 and 0.9699 and 1.212 and 0.552 and 3.905 and 2.9421 and 2.881 and 4.816
- response at Log[drug], M -12 (FigS4e) (hCB1; Log[drug], M = -12, individual replicates): 1.069 and -1.289 and -0.4859 and 0.7059 and -0.1854 and 0.7118 and -1.111 and 0.5848 and 1.078 and -0.868 and 0.4635 and -0.6734
- EC50 (hCB1; hCB1, read-out: Tango ß-arrestin recruitment EC50): > 10 µM
- functional response, concentration-response point (FigS7e, normalized) (hCB2; M = -5): 13.7314 and 19.7654 and 16.2539 and 16.3582 and 15.5266 and 14.7181 and 16.9744 and 17.1956 and 17.3437 and 20.7447 and 17.5139 and 16.5546
- functional response, concentration-response point (FigS7e, normalized) (hCB2; M = -5.52): 20.9042 and 19.2165 and 18.0732 and 18.0369 and 19.6455 and 19.8563 and 17.8521 and 14.5073 and 16.3411 and 19.903 and 17.2602 and 16.9755
- functional response, concentration-response point (FigS7e, normalized) (hCB2; M = -6): 10.7507 and 14.9427 and 13.7359 and 16.0951 and 12.4583 and 11.3422 and 12.1059 and 9.687 and 11.8107 and 11.4703 and 9.703 and 11.3929
- functional response, concentration-response point (FigS7e, normalized) (hCB2; M = -6.52): 4.563 and 6.7947 and 8.079 and 4.985 and 4.497 and 4.0725 and 5.772 and 5.524 and 4.879 and 5.1763 and 4.984 and 5.043
- functional response, concentration-response point (FigS7e, normalized) (hCB2; M = -7): 0.9969 and 1.487 and 2.14 and 1.042 and 1.585 and 1.996 and 1.046 and 1.153 and 1.5 and 1.42 and 1.036 and 1.049
- functional response, concentration-response point (FigS7e, normalized) (hCB2; M = -7.52): 0.4797 and -0.06465 and 1.02 and 1.242 and 0.9491 and 0.7245 and 0.6969 and 0.2961 and 0.374 and 0.3276 and 0.4451 and 0.1667
- functional response, concentration-response point (FigS7e, normalized) (hCB2; M = -8): 0.02154 and 0.144 and -0.228 and -0.5682 and 0.189 and -0.07359 and -0.0114 and 0.652 and 0.7051 and 0.1667 and -0.0685 and 0.08312
- functional response, concentration-response point (FigS7e, normalized) (hCB2; M = -8.52): -0.1696 and -0.1994 and 0.2365 and -0.2192 and 0.07356 and 0.6319 and 1.0091 and 0.1075 and 0.1334 and 0.5456 and 0.1807 and -0.04223
- functional response, concentration-response point (FigS7e, normalized) (hCB2; M = -12): -0.3529 and 0.3603 and 0.09782 and -0.1053

Reference: PMC11882969 (Nature Communications, 2025)
